Biological target: T1, HIV-1 protease (Human immunodeficiency virus type 1 group M subtype B, UniProt P04585)
T1 construct: 2.6 nM of HIV-1 protease
Assay: Assay for inhibitory effect on HIV protease (residual enzyme activity, HPLC of substrate cleavage)
Assay type: biochemical
Conditions: for Ki / kinact: HIV-1 protease 2.6 nM; for Ki / kinact / kinact/KI: pH 5.5; for Ki: inhibition constant; for kinact: rate constant of covalent bond formation, read-out: kina (converted); for kinact/KI: second order rate constant, HIV-1 protease, read-out: kina /KI (converted)
Description: The inhibitory effect on HIV protease of the compounds of the present invention was determined by the following method.
To a buffer solution comprising 50 mM sodium acetate, pH 5.5, 1 mM dithiothreitol(DTT), 1 mM ethylenediaminetetraacetate (EDTA), 0.75M ammonium sulfate, 0.2M sodium chloride and 0.1% NP40(NONIDET P-40; Sigma Chemical Co., U.S.A.), were added various concentrations of a compound selected from Compound Nos. 1 to 92 to prepare a preincubation solution. Inhibition reaction was started with the addition of 2.6 nM of HIV-1 protease to the preincubation solution. Each 10 μl of the reaction solution was taken at a given time interval and added to 80 μl of assay solution containing 100 μM of reaction substrate in the same buffer solution as above to assay for the residual enzyme activity. In this context, an oligopeptide(KM =20 μM) consisting of 11 amino acids, i.e., Ser-Ile-Ala-Glu-(p-NO2)-Phe-Leu-Val-Arg-Ala-Lys-His, was used as a reaction substrate, which oligopeptide was to be cleaved in two by the breakage of amide bond between (P--NO2)-Phe and Leu upon the attack of HIV protease. The reaction rate was determined by subjecting the substrate before the reaction and the product after the reaction to HPLC separation and then measuring the relative amount of the product, using the strong absorbance of (p--NO2)-Phe at 280 nm. The amount of reduction in enzyme activity according to the elapsed time were measured and the natural logarithmic values(ln) of the measured amounts were plotted against time to obtain a linear graph and kobs was calculated from the slope of the linear graph.
The inhibition constant was calculated according to the following equation: [formula] wherein: kobs is a rate constant indicating the rate of reduction in enzyme activity according to the elapsed time under the presence of a given concentration of inhibitor,
kina is a rate constant indicating the rate of chemical reaction forming covalent bond between an enzyme and an inhibitor in Michaelis-Menten complex,
KI is an inhibition constant indicating the dissociation rate of Michaelis-Menten complex into an enzyme and an inhibitor, and
[I] means the inhibitor concentration.
The above equation is applicable to an experiment carried out under the condition in which the concentration of inhibitor is far higher than that of enzyme(Steady State Kinetic). […] The inhibition constants KI and kina and second order rate constant kina /KI were obtained by inputting the value of [E]/([E]+[EI]+[EI']) into KINSIM/FITSIM program. FIG. 1 exemplifies a result of the experiment determining the binding ratio of enzymes and inhibitors, which result was obtained by reacting the enzyme and the inhibitor in various concentration ratios for a sufficient time period(at least for 30 minutes), and then plotting the relative activity of the remaining enzyme against [conc. of inhibitor]/[conc. of enzyme].

Compound | Ki [nM] | kinact [s⁻¹] | kinact/KI [M⁻¹ s⁻¹] | Km (oligopeptide substrate of 11 amino acids, read-out: KM of reaction substrate) [µM]
CC[C@H](C)[C@H](NC(=O)C[C@@H]1O[C@@H]1[C@H](CC1CCCCC1)NC(=O)[C@H](CC(N)=O)NC(=O)c1ccc2ccccc2n1)C(=O)OC [compound 5] | 92 | 0.00333 | 36700 | 
CC[C@H](C)[C@H](NC(=O)C[C@@H]1O[C@@H]1[C@H](Cc1ccccc1)NC(=O)[C@H](CC(N)=O)NC(=O)COc1ccccc1)C(=O)OC [compound 4] | 60 | 0.0015 | 25000 | 
COC(=O)C(NC(=O)C(CCC(N)=O)NC(=O)C[C@@H]1O[C@@H]1[C@H](Cc1ccccc1)NC(=O)[C@H](CC(N)=O)NC(=O)COc1cccc2ccccc12)C(C)C (some centres unmarked) [compound 16] | 420 | 0.0025 | 6000 | 
CNC(=O)[C@@H](NC(=O)C[C@@H]1O[C@@H]1[C@H](Cc1ccccc1)NC(=O)[C@H](CC(N)=O)NC(=O)c1ccc2ccccc2n1)C(C)C [compound 30] | 22 | 0.00333 | 183000 | 
NC(=O)C[C@H](NC(=O)[C@H](Cc1ccccc1)NC(=O)OCc1ccccc1)C(=O)N[C@@H](Cc1ccccc1)[C@H]1O[C@H]1CCc1ccccc1 [compound 68, 2-L-[N-(N-benzyloxycarbonyl-L-phenylalanyl)-L-asparaginyl]amino-(3R,4S)-epoxy-1,6-diphenylhexane] | 4000 | 0.000667 | 167 | 
CC(C)[C@H](NC(=O)N(C)Cc1ccccc1)C(=O)NC[C@@H]1O[C@@H]1[C@H](Cc1ccccc1)NC(=O)[C@@H](NC(=O)N(C)Cc1ccccc1)C(C)C [compound 81, 4S-1,4-bis[N-[(N'-benzylmethylamino)carbonyl-L-valinyl]amino]-5-phenyl-(2S,3R)-(Z)-epoxypentane] | > 10000 |  |  | 
NC(=O)C[C@H](NC(=O)COc1ccc(F)cc1F)C(=O)N[C@@H](Cc1ccccc1)[C@H]1O[C@H]1CCc1ccccc1 [compound 58, 2-L-[N-(2,4-difluoro)phenoxyacetyl-L-asparaginyl]amino-(3R,4S)-epoxy-1,6-diphenylhexane] | 3300 | 0.0005 | 152 | 
CC(C)CC[C@@H]1O[C@@H]1[C@H](Cc1ccccc1)NC(=O)[C@H](CC(N)=O)NC(=O)OCc1ccccc1 [compound 69, 2-L-(N-benzyloxycarbonyl-L-asparagyl)amino-(3R,4S)-epoxy-7-methyl-1-phenyloctane] | 550 | 0.001 | 1830 | 
CCC(C)[C@H](NC=O)C(=O)NC[C@@H]1O[C@@H]1[C@H](Cc1ccccc1)NC(=O)[C@H](CC(N)=O)NC(=O)c1ccc2ccccc2n1 (some centres unmarked) [compound 90] | 140 | 0.00667 | 48300 | 
NC(=O)C[C@H](NC(=O)c1ccc2ccccc2n1)C(=O)N[C@@H](Cc1ccccc1)[C@H]1O[C@H]1CNC(=O)[C@@H](NC=O)c1ccccc1 [compound 91] | 1200 | 0.005 | 4170 | 
CC(C)C[C@H](NC(=O)[C@H](CC(N)=O)NC(=O)OCc1ccccc1)[C@H]1O[C@H]1CCc1ccccc1 [compound 56, 5-L-(N-benzyloxycarbonyl-L-asparaginyl)amino-(3S,4R)-epoxy-7-methyl-1-phenyloctane] | 44400 | 0.00483 | 108 | 
NC(=O)C[C@H](NC(=O)COc1ccccc1)C(=O)N[C@@H](Cc1ccccc1)[C@H]1O[C@H]1CCc1ccccc1 [compound 57, 2-L-(N-phenoxyacetyl-L-asparaginyl)amino-(3R,4S)-epoxy-1,6-diphenylhexane] | 12500 | 0.0015 | 120 | 
CONC(=O)[C@@H](NC(=O)C[C@@H]1O[C@@H]1[C@H](Cc1ccccc1)NC(=O)[C@H](CC(N)=O)NC(=O)c1ccc2ccccc2n1)C(C)C [compound 34] | 15 | 0.00267 | 183000 | 
CC[C@H](C)[C@H](NC(=O)C[C@@H]1O[C@@H]1[C@H](Cc1ccccc1)NC(=O)[C@@H](NC(=O)OCc1ccccn1)C(C)C)C(=O)OC [compound 38, N-{N-L-[[N-(2-pyridylmethoxycarbonyl)-L-valinyl)-amino]-(4R,3S)-epoxy-6-phenyl-hexanoyl}-L-isoleucine methyl ester] | > 10000 |  |  | 
Ser-Ile-Ala-Glu-(p-NO2)-Phe-Leu-Val-Arg-Ala-Lys-His [reference compound] |  |  |  | 20
CC(C)[C@H](NC(=O)OCc1cccnc1)C(=O)NC[C@@H]1O[C@@H]1[C@H](Cc1ccccc1)NC(=O)[C@@H](NC(=O)OCc1cccnc1)C(C)C [compound 78] | 720 | 0.00167 | 2330 | 
C[C@H](NC(=O)OCc1ccccc1)C(=O)N[C@@H](CC(N)=O)C(=O)N[C@@H](Cc1ccccc1)[C@H]1O[C@H]1CCc1ccccc1 [compound 67, 2-L-[N-(N-benzyloxycarbonyl-L-alanyl)-L-asparaginyl]amino-(3R,4S)-epoxy-1,6-diphenylhexane] | 260 | 0.00117 | 4500 | 
NC(=O)C[C@H](NC(=O)c1ccc2ccccc2n1)C(=O)N[C@@H](Cc1ccccc1)[C@H]1O[C@H]1CNC(=O)[C@H](Cc1ccccc1)NC=O [compound 92] | 1400 | 0.00333 | 2330 | 
CC[C@H](C)[C@H](NC(=O)C[C@@H]1O[C@@H]1[C@H](Cc1ccccc1)NC(=O)[C@H](CC(N)=O)NC(=O)c1ccc2ccccc2n1)C(=O)N1CCOCC1 [compound 29] | > 10000 |  |  | 
NC(=O)C[C@H](NC(=O)[C@H](Cc1ccccc1)NC(=O)CCN1CCOCC1)C(=O)N[C@@H](Cc1ccccc1)[C@H]1O[C@H]1CCc1ccccc1 [compound 66, 2-L-[N-(N-morpholinepropanecarbonyl-L-phenylalanyl)-L-asparaginyl]amino-(3R,4S)-epoxy-1,6-diphenylhexane] | 550 | 0.0128 | 23300 | 
NC(=O)CC[C@H](NC(=O)OCc1ccccc1)C(=O)N[C@@H](Cc1ccccc1)[C@H]1O[C@H]1CCc1ccccc1 [compound 55, 2-L-(N-benzyloxycarbonyl-L-glutaminyl)amino-(3R,4S)-epoxy-1,6-diphenylhexane] | 2200 | 0.00367 | 1670 | 
CC(C)[C@H](NC=O)C(=O)NC[C@@H]1O[C@@H]1[C@H](Cc1ccccc1)NC(=O)[C@H](CC(N)=O)NC(=O)c1ccc2ccccc2n1 [compound 88] | 850 | 0.0367 | 43300 | 
CC[C@H](C)[C@H](NC(=O)OCc1ccccc1)C(=O)N[C@@H](Cc1ccccc1)[C@H]1O[C@H]1CCc1ccccc1 [compound 54, 2-L-(N-benzyloxycarbonyl-L-isoleucinyl)amino-(3R,4S)-epoxy-1,6-diphenylhexane] | 1000 | 0.0075 | 7500 | 
O=C(O)CC[C@H](NC(=O)OCc1ccccc1)C(=O)NC[C@@H]1O[C@@H]1[C@H](Cc1ccccc1)NC(=O)[C@H](CCC(=O)O)NC(=O)OCc1ccccc1 [compound 74, 4S-1,4-bis[N-(N'-benzyloxycarbonyl-L-glutamic acidyl)amino]-5-phenyl-(2S,3R)-(Z)-epoxypentane] | > 10000 |  |  | 
CC(C)[C@H](NC(=O)OCc1ccncc1)C(=O)NC[C@@H]1O[C@@H]1[C@H](Cc1ccccc1)NC(=O)[C@@H](NC(=O)OCc1ccncc1)C(C)C [compound 79] | 3000 | 0.00167 | 550 | 
CC(C)(C)OC(=O)N[C@@H](Cc1ccccc1)[C@H]1O[C@H]1CCc1ccccc1 [compound 51, 2-L-(t-butoxycarbonyl)amino-(3R,4S)-epoxy-1,6-diphenylhexane] | 7000 | 0.000833 | 118 | 
NC(=O)C[C@H](NC(=O)c1ccc2ccccc2[n+]1[O-])C(=O)N[C@@H](Cc1ccccc1)[C@H]1O[C@H]1CCc1ccccc1 [compound 64, 2-L-[N-(N-oxy)quinoline-2-yl-carbonyl-L-asparaginyl]amino-(3R,4S)-epoxy-1,6-diphenylhexane] | 3600 | 0.0015 | 417 | 

Source: US5744621A, “Irreversible HIV protease inhibitors, intermediates, compositions and processes for the preparation thereof” (Lucky Limited., priority 1992, dated 1998)
